{"source": "patent US20070276011A1", "about": "“Plasminogen Activator Inhibitor-1 Inhibitor” (priority 2003, published 2007)"}
{"target": "recombinant human PAI-1 (Homo sapiens, UniProt P05121)", "sequence (P05121 24-402)": "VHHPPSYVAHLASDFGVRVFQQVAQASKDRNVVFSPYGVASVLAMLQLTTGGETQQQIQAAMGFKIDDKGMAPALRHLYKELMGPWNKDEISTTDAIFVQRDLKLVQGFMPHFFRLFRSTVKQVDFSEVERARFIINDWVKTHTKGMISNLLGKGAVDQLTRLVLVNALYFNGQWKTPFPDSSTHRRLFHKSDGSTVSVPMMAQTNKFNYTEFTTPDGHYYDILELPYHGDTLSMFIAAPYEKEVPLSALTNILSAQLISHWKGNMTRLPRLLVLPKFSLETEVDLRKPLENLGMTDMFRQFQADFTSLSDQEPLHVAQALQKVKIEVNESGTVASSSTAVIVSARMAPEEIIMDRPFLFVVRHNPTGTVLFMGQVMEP", "experiment": "PAI-1 inhibitory activity, Test Method A (tPA fluorogenic substrate, Tris buffer pH8.0, 37 C)", "assay_type": "biochemical", "conditions": "25 μM test compound; Test Method A", "units": {"Inhibitory Ratio at 25 μM (%)": "%"}}
{"smiles": "O=C(Nc1ccc2c(c1)OCO2)c1cc(C=C2SC(=O)N(Cc3ccc(Cl)c(Cl)c3)C2=O)cc(O)c1O", "note": "[compound 474]", "Inhibitory Ratio at 25 μM (%)": 82}
{"smiles": "O=C(OCc1ccccc1)c1cc(C=C2SC(=O)N(Cc3ccc(Cl)c(Cl)c3)C2=O)cc(-c2ccccc2)c1O", "note": "[compound 426, 5-[3-Phenyl-4-hydroxy-5-(benzyloxycarbonyl)benzylidene]-3-(3,4-dichlorobenzyl)thiazolidine-2,4-dione]", "Inhibitory Ratio at 25 μM (%)": 91}
{"smiles": "O=C1SC(=Cc2ccc(O)c(-c3ccc(O)c(O)c3)c2)C(=O)N1Cc1ccc(Cl)c(Cl)c1", "note": "[compound 445]", "Inhibitory Ratio at 25 μM (%)": ">99"}
{"smiles": "COc1ccc(C)cc1NC(=O)c1cc(C=C2SC(=O)N(Cc3ccc(Cl)c(Cl)c3)C2=O)ccc1O", "note": "[compound 452, 5-[4-hydroxy-3-(2-methoxy-5-methylphenylcarbamoyl)-benzylidene]-3-(3,4-dichlorobenzyl)thiazolidine-2,4-dione]", "Inhibitory Ratio at 25 μM (%)": ">99"}
{"smiles": "O=C(Nc1cccc(OC(F)(F)F)c1)c1cc(C=C2SC(=O)N(Cc3ccc(Cl)c(Cl)c3)C2=O)ccc1O", "note": "[compound 414]", "Inhibitory Ratio at 25 μM (%)": 91}
{"smiles": "COc1ccc(NC(=O)c2cc(C=C3SC(=O)N(Cc4ccc(C(F)(F)F)cc4)C3=O)ccc2O)cc1OC", "note": "[compound 391, 5-[4-Hydroxy-3-(3,4-dimethoxyphenylcarbamoyl)benzylidene]-3-[4-(trifluoromethyl)benzyl]thiazolidine-2,4-dione]", "Inhibitory Ratio at 25 μM (%)": ">99"}
{"smiles": "CCOC(=O)Oc1cc(C=C2SC(=O)N(Cc3ccc(Cl)c(Cl)c3)C2=O)cc(OC(=O)OCC)c1OC(=O)OCC", "note": "[compound 340]", "Inhibitory Ratio at 25 μM (%)": 56}
{"smiles": "O=C(Nc1ccc(O)c(O)c1)c1cc(C=C2SC(=O)N(Cc3cc(C(F)(F)F)ccc3C(F)(F)F)C2=O)ccc1O", "note": "[compound 374]", "Inhibitory Ratio at 25 μM (%)": ">99"}
{"smiles": "COC(=O)c1ccc(Cl)cc1NC(=O)c1cc(C=C2SC(=O)N(Cc3ccc(Cl)c(Cl)c3)C2=O)ccc1O", "note": "[compound 453, 5-[4-hydroxy-3-(2-methoxycarbonyl-5-chlorophenylcarbamoyl)-benzylidene]-3-(3,4-dichlorobenzyl)thiazolidine-2,4-dione]", "Inhibitory Ratio at 25 μM (%)": ">99"}
{"smiles": "O=C1SC(=Cc2ccc(O)c(O)c2)C(=O)N1Cc1cc(C(F)(F)F)ccc1C(F)(F)F", "note": "[compound 305, 5-(3,4-Dihydroxybenzylidene)-3-[2,5-bis(trifluoromethyl)benzyl]-thiazolidine-2,4-dione]", "Inhibitory Ratio at 25 μM (%)": ">99"}
{"smiles": "CCOC1=NN(c2ccc([N+](=O)[O-])cc2)C(=O)C1=Cc1c2ccccc2cc2ccccc12", "note": "[compound 547]", "Inhibitory Ratio at 25 μM (%)": 62}
{"smiles": "COc1ccc(COC(=O)c2cc(C=C3SC(=O)N(Cc4ccc(C(F)(F)F)cc4)C3=O)ccc2O)cc1", "note": "[compound 387, 5-[4-hydroxy-3-(4-methoxybenzyloxycarbonyl)benzylidene]-3-[4-(trifluoromethyl)benzyl]thiazolidine-2,4-dione]", "Inhibitory Ratio at 25 μM (%)": 74}
{"smiles": "Cc1ccc(O)cc1NC(=O)c1cc(C=C2SC(=O)N(Cc3ccc(Cl)c(Cl)c3)C2=O)ccc1O", "note": "[compound 456]", "Inhibitory Ratio at 25 μM (%)": 83}
{"smiles": "N=C(N)NCCC[C@H](N)C(=O)O.N=C(N)NCCC[C@H](N)C(=O)O.O=C1SC(=Cc2ccc(O)c(O)c2)C(=O)N1Cc1ccc(Cl)cc1Cl", "note": "[compound 335, di(L-(+)-arginine) salt of 5-(3,4-dihydroxybenzylidene)-3-(2,4-dichlorobenzyl)thiazolidine-2,4-dione]", "Inhibitory Ratio at 25 μM (%)": ">99"}
{"smiles": "CC(C)C1=NN(c2cc(Cl)cc(Cl)c2)C(=O)C1=Cc1cc(O)c(O)cc1Br", "note": "[compound 556, 4-(2-Bromo-4,5-dihydroxybenzylidene)-1-(3,5-dichlorophenyl)-3-isopropyl-2-pyrazolin-5-one]", "Inhibitory Ratio at 25 μM (%)": ">99"}
{"smiles": "O=C(Nc1cc(C(F)(F)F)ccc1C(F)(F)F)c1cc(C=C2SC(=O)N(Cc3ccc(Cl)c(Cl)c3)C2=O)ccc1O", "note": "[compound 403]", "Inhibitory Ratio at 25 μM (%)": 58}
{"smiles": "COc1cc(OC)c(OC)cc1C=C1C(=O)N(c2cc(Cl)cc(Cl)c2)N=C1C(C)C", "note": "[compound 506]", "Inhibitory Ratio at 25 μM (%)": 50}
{"smiles": "O=C(O)c1c(O)cc(C=C2SC(=O)N(Cc3ccc(Cl)c(Cl)c3)C2=O)cc1O", "note": "[compound 446]", "Inhibitory Ratio at 25 μM (%)": ">99"}
{"smiles": "CC(C)C1=NN(c2cc(Cl)cc(Cl)c2)C(=O)C1=Cc1ccc(O)cc1O", "note": "[compound 505]", "Inhibitory Ratio at 25 μM (%)": 93}
{"smiles": "COc1cc(C=C2SC(=O)N(Cc3ccc(Cl)c(Cl)c3)C2=O)cc([N+](=O)[O-])c1O", "note": "[compound 346, 5-(3-methoxy-4-hydroxy-5-nitrobenzylidene)-3-(3,4-dichlorobenzyl)thiazolidine-2,4-dione]", "Inhibitory Ratio at 25 μM (%)": ">99"}
{"smiles": "O=C1SC(=Cc2ccc(O)c(-c3c(O)cccc3O)c2)C(=O)N1Cc1ccc(Cl)c(Cl)c1", "note": "[compound 449]", "Inhibitory Ratio at 25 μM (%)": ">99"}
{"target": "recombinant human PAI-1 (Homo sapiens, UniProt P05121)", "experiment": "PAI-1 inhibitory activity, Test Method A (tPA fluorogenic substrate, Tris buffer pH8.0, 37 C)", "assay_type": "biochemical", "conditions": "test compound 25 μM; Test Method A", "units": {"Inhibitory Ratio at 25 μM (%)": "%"}}
{"smiles": "O=C1C(=Cc2ccc(-c3cc([N+](=O)[O-])ccc3O)o2)C(O)=NN1c1cccc(Cl)c1", "note": "[compound 165]", "Inhibitory Ratio at 25 μM (%)": 29}
{"smiles": "CC1=NN(c2ccc(Cl)c(C(=O)O)c2)C(=O)C1=Cc1ccc(-c2ccccc2Cl)o1", "note": "[compound 188]", "Inhibitory Ratio at 25 μM (%)": 35}
{"smiles": "O=C(O)c1cccc(N2N=C(c3ccccc3)C(=Cc3ccccc3)C2=O)c1", "note": "[compound 175]", "Inhibitory Ratio at 25 μM (%)": 35}
{"smiles": "O=C1SC(=Cc2cccc(O)c2O)C(=O)N1Cc1cc(F)cc(F)c1", "note": "[compound 24, 5-(2,3-Dihydroxybenzylidene)-3-(3,5-difluorobenzyl)thiazolidine-2,4-dione]", "Inhibitory Ratio at 25 μM (%)": ">99"}
{"smiles": "CC1=NN(c2ccc(Cl)c(C(=O)O)c2)C(=O)C1=Cc1ccc(-c2cccc(F)c2)o1", "note": "[compound 192]", "Inhibitory Ratio at 25 μM (%)": 44}
{"smiles": "O=C1C(=Cc2ccc(O)c(O)c2)C(C(F)(F)F)=NN1c1cc(Cl)cc(Cl)c1", "note": "[compound 147, 4-(3,4-Dihydroxybenzylidene)-1-(3,5-dichlorophenyl)*3-trifluoromethyl-2-pyrazolin-5-one]", "Inhibitory Ratio at 25 μM (%)": ">99"}
{"smiles": "Cc1cc(C)cc(CN2C(=O)SC(=Cc3cccc(O)c3O)C2=O)c1", "note": "[compound 26, 5-(2,3-Dihydroxybenzylidene)-3-(3,5-dimethylbenzyl)thiazolidine-2,4-dione]", "Inhibitory Ratio at 25 μM (%)": ">99"}
{"smiles": "CCOC1=NN(c2ccc([N+](=O)[O-])cc2)C(=O)C1=Cc1cc(O)c(O)c(O)c1", "note": "[compound 132]", "Inhibitory Ratio at 25 μM (%)": ">99"}
{"smiles": "O=C1SC(=Cc2ccc(O)c(O)c2O)C(=O)N1Cc1ccc(Cl)c(Cl)c1", "note": "[compound 29]", "Inhibitory Ratio at 25 μM (%)": 68}
{"smiles": "CC(C)(C)C1=NN(c2ccccc2)C(=O)C1=Cc1ccc(O)c(O)c1", "note": "[compound 133]", "Inhibitory Ratio at 25 μM (%)": 55}
{"smiles": "CC(C)C1=NN(c2cc(Cl)cc(Cl)c2)C(=O)C1=Cc1ccc(O)c(O)c1O", "note": "[compound 142]", "Inhibitory Ratio at 25 μM (%)": ">99"}
{"smiles": "Cc1cccc(N2N=C(C(C)C)C(=Cc3ccc(O)c(O)c3)C2=O)c1", "note": "[compound 125, 4-(3,4-Dihydroxybenzylidene)-1-(3-methylphenyl)-3-isopropyl-2-pyrazolin-5-one]", "Inhibitory Ratio at 25 μM (%)": 38}
{"smiles": "Cc1ccc(N2N=C(C(C)C)C(=Cc3ccc(O)c(O)c3)C2=O)cc1Cl", "note": "[compound 119, 4-(3,4-Dihydroxybenzylidene)-1-(3-chloro-4-methylphenyl)-3-isopropyl-2-pyrazolin-5-one]", "Inhibitory Ratio at 25 μM (%)": ">99"}
{"smiles": "CC1=NN(c2cccc(C(=O)O)c2)C(=O)C1=Cc1cc(Br)ccc1OCc1ccccc1", "note": "[compound 173]", "Inhibitory Ratio at 25 μM (%)": 66}
{"smiles": "O=C1SC(=Cc2ccc(O)c(O)c2)C(=O)N1Cc1cccc(Oc2ccccc2)c1", "note": "[compound 17]", "Inhibitory Ratio at 25 μM (%)": ">99"}
